Source: patent US7943160B2, “Pest control methods” (priority 2002, dated 2011)
Where “and” joins values, the source holds several entries; their conditions need not be identical. Equal entries are not always repeated.

What was measured:
Assay type in all cases: in vivo
[1] = test system: larval ticks (I. scapularis); assay: Systemic efficacy of fipronil diet on larval ticks fed on laboratory mice; details: diet compositions containing 960-ppm fipronil (so in the source)
[2] = test system: larval ticks (I. scapularis); assay: as above; details: for Replete Ticks: individual mice; for Replete Ticks, Total: 8 mice
Protocol: To investigate the systemic efficacy of fipronil against ticks, diet compositions formulated with the compound were presented to treatment mice while an EPA challenge diet, without insecticide, was presented to control mice. Diet compositions were presented for 48 hours. Water was supplied ad libitum. Feed consumption was monitored throughout the study. After 48-hours, mice were removed from their cages and 50-70 I. scapularis were applied to each mouse by first placing mice in 50 ml centrifuge tubes will multiple holes in them. Holes were created by melting the centrifuge tube with a soldering iron. Ticks were then applied and mice remained restrained in the tubes for 2-5 hours, thereby allowing the ticks to attach. The mice were placed in cages suspended over water in a humidity chamber maintaining humidity between 60-80%. Water underneath the suspended mice was checked daily for the presence of ticks falling from the mice. The number of fed and unfed ticks was recorded. Water pans were checked for 6 days. The ticks were kept at 21° C., 90% humidity and a light cycle of 16L:8D. Pans were checked for 5 days. The end-point for the insecticides were larval tick mortality after exposure.
Study 1a: A Diet Composition Containing 970-ppm Fipronil Diet was Formulated Using Inert Ingredients of Rolled Oats, Corn Meal, Powdered Sugar and Corn Oil.
The diet was exposed to laboratory mice for 48 hours.
Study 2a: A Diet Composition Containing 485-ppm Fipronil Diet was Formulated and Exposed to Laboratory Mice for 48 Hours.
The diet was exposed to laboratory mice for 48 hours. Ticks were applied directly to the mice.

X. cheopis fleas = assay: Flea mortality on rats fed imidacloprid or imidacloprid/piperonyl butoxide diet
Protocol: For example, an investigation was conducted into the ability of piperonyl butoxide to potentiate the insecticidal activity of orally administered imidacloprid to rats challenged with fleas. Piperonyl butoxide compound is known to produce significant decreases in hepatic cytochrome P450 in rats (Dalvi and Dalvi 1991). Because imidacloprid is also metabolized by cytochrome P450 in rats (Schulz-Jander et al. 2002), decreasing the metabolism rate of imidacloprid in the rat (i.e., the rate at which imidacloprid is metabolized by the rat) may increase the availability and therefore the toxicity of the compound to fleas as well as possibly increasing the residual action of the insecticide. Four rats were evaluated for each test diet. Rats were individually housed in individual cages. Rats were housed in cages measuring 24×40.5×18 cm (L×W×H). The floor area measured 972 cm^2. Tap water in glass bottles with stainless steel sipper tubes was available ad libitum. Cages were suspended from shelves on two, single-sided racks. Rats were placed in cages identified by a consecutive number 1-8 and a descriptor for their sex (e.g. M or F). PBO Technical (Prentox®) was received from Prentiss Inc. (Floral Park, N.Y., Lot# 41428). Diet composition was made using the following recipes:
The imidacloprid (Imi) diet composition was formulated at 167 mg/kg imidacloprid. The imidacloprid/PBO diet composition was formulated at 169 mg/kg imidacloprid and 1% PBO. Diets were mixed and presented no-choice to rats for 24 hours. Flea feeding capsules, containing fleas (X. cheopis) were secured to the rats and remained attached for 5 hrs. After exposure, the flea feeders were removed and placed in the humidity chamber until the following morning. Fleas were then evaluated for mortality and morbidity (Table 5).

German cockroaches = assay: Cockroach mortality on rodent challenge diet fortified with imidacloprid; details: EPA challenge diet fortified with 250 mg/kg imidacloprid
Protocol: To determine if rodent diet compositions containing imidacloprid would be effective at controlling cockroaches, German cockroaches were received from a commercial supplier and placed in a sealed container. Rodent “challenge diet”, the EPA standard rodent diet formulation, fortified with 250 mg/kg imidacloprid was placed in the cage. Water was supplied by a wet cotton wick. The mortality of cockroaches consuming diet was 100%.

Structure (SMILES) | preventing ticks from feeding to repletion [1] | Replete Ticks ([2]; 485 ppm fipronil diet 48 hours, 70 ticks applied per mouse) | Replete Ticks, Total ([2]; 485 ppm fipronil diet, 70 ticks each, control total 162) | Replete Ticks ([2]; 970-ppm fipronil diet 48 hours, 50 ticks applied per mouse) | Replete Ticks, Total ([2]; 970-ppm fipronil diet, 50 ticks each, control total 12) | prevents ticks from feeding to repletion ([2]; fipronil formulated at 485 mg/kg in diet) | Total fleas dead/recovered (X. cheopis fleas; 4 rats per diet, pooled) | Total Percent Mortality (%) (X. cheopis fleas; 4 rats per diet, Imi 167 mg/kg, Imi/pip 169 mg/kg imidacloprid and 1% PBO) | # Fleas Dead/# Fleas Recovered (X. cheopis fleas; individual rats, diet 24 hours, flea capsules attached 5 hrs, Imi 167 mg/kg, Imi/pip 169 mg/kg imidacloprid and 1% PBO) | mortality of cockroaches consuming diet (German cockroaches) [%]
N#Cc1nn(-c2c(Cl)cc(C(F)(F)F)cc2Cl)c(N)c1[S+]([O-])C(F)(F)F (stereo not shown) [Fipronil, fipronil] | effective at preventing ticks from feeding to repletion | 0 | 0 | 0 | 0 | prevents ticks from feeding to repletion |  |  |  | 
O=[N+]([O-])NC1=NCCN1Cc1ccc(Cl)nc1 [Imidacloprid, imidacloprid] |  |  |  |  |  |  | (71/85) | 83.5 | 20/24 and 18/18 and 15/15 and 18/28 | 100
